Source: paper PMC7076857 (Toxins, 2020)
In brackets after ≈: the same amount, converted by molar mass. Read-outs that look alike come from different tables or passages of the source. Numbered stars: 1 amine (or outer) side, 2 acyl side, 3 side chain; on linkers, the order of the positions; unused ones are H or OH. Bridge positions count the residues as written; N and C are the ends. Square brackets hold non-standard residues; d marks the D form. Peptide text beside a SMILES is read from it. Adda = CO[C@@H](Cc1ccccc1)[C@@H](C)/C=C(C)/C=C/[C@H](N[*:1])[C@H](C)C(=O)[*:2]; dAsp(3S-Me) = C[C@H](C(=O)[*:3])[C@@H](N[*:1])C(=O)[*:2]; d(γGlu) = O=C(O)[C@@H](CCC(=O)[*:2])N[*:1]; NMeDha = C=C(NC)C(=O)O

What was measured:
[1] = target: Protein phosphatase 2A (PP2A) (Homo sapiens, UniProt P67775); assay type: biochemical; conditions: for IC50: read-out: IC50 (PP2A inhibition)
Chain of Protein phosphatase 2A (PP2A) (P67775 whole entry, looked up): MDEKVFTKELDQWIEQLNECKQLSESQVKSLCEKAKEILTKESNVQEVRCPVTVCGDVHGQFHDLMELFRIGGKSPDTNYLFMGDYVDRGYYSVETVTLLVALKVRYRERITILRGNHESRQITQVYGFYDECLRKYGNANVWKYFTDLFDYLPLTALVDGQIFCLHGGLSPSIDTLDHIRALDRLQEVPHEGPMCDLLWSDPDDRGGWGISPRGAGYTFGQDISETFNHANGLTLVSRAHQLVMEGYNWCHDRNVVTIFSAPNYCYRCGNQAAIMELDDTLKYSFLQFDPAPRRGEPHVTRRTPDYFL

PP2A = conditions: cited from earlier work
Source text: The positive and negative LC–HRMS spectra of 1 were consistent with a molecular formula of C55H77O13N7 which, together with the presence of a prominent [M + Na]^+ adduct ion, a weak neutral loss of m/z 134.0727, and the late retention time, were consistent with a non-Arg-containing MC. […] The negative ion MS/MS spectrum obtained from the FS/DIA (full scan/data indepe ...

| Compound | IC50 (PP2A inhibition) [1] | Potency in PP2A inhibition assay relative to MC-LR (2) [1] | IC50 [1] | IC50 (PP2A) | IC50 relative to MC-LR (2), fold higher (PP2A; PP2A assay, MC-LF vs. MC-LR, ref 21 (Ikehara et al.)) | IC50 (PP2A; ref 21 (Ikehara et al.)) |
| --- | --- | --- | --- | --- | --- | --- |
| C=C1C(=O)N[C@H](CC(C)C)C(=O)N[C@@H](CC(C)C)C(=O)N[C@@H](C(=O)O)[C@H](C)C(=O)N[C@@H](Cc2ccc(O)cc2)C(=O)N[C@@H](/C=C/C(C)=C/[C@H](C)[C@H](Cc2ccccc2)OC)[C@H](C)C(=O)N[C@@H](C(=O)O)CCC(=O)N1C [Compound 1, [D-Leu^1]MC-LY] (Y[Adda][d(γGlu)][NMeDha][dL]L[dAsp(3S-Me)]-OH; lactam N-7) | 0.80 ng/mL (≈ 0.766 nM) | essentially the same as for MC-LR (2) | 0.76 nM | – | – | – |
| C=C1C(=O)N[C@H](C)C(=O)N[C@@H](CC(C)C)C(=O)N[C@@H](C(=O)O)[C@H](C)C(=O)N[C@@H](CCCNC(=N)N)C(=O)N[C@@H](/C=C/C(C)=C/[C@H](C)[C@H](Cc2ccccc2)OC)[C@H](C)C(=O)N[C@@H](C(=O)O)CCC(=O)N1C [Compound 2, MC-LR] (R[Adda][d(γGlu)][NMeDha][dA]L[dAsp(3S-Me)]-OH; lactam N-7) | 0.62 ng/mL (≈ 0.623 nM) | – | 0.62 nM | 0.032 nM | – | – |
| MC-LF [Compound 9] | – | – | – | – | 3 fold | 0.096 nM |
